pIC50: −log10 of the molar value. Like-named read-outs stand apart in the source and are kept apart here.
What was measured:
[1] = system: barnyard grass Echinochloa crusgalli; assay: Petri dish culture, growth inhibition of root and stalk of barnyard grass; format: in vivo; settings: 5 days; for inhibition at 1 µg/mL / inhibition at 10 µg/mL: Echinochloa crus-galli, 120 h
Method: (§1) The synthesized compounds were tested for the herbicidal activity on model plants including a monocotyledon (barnyard grass) and a dicotyledon (rape) by the reported Petri dish culture method. The percent inhibitory ratios against the growth of root and stalk of barnyard grass and rape at different dosage concentrations were calculated, and the compounds with appreciable inhibitory potencies are selected and shown in Table 1 and Table 2. Several features of the inhibitory activities can be derived. First, all the compounds have stronger inhibition against the growth of the dicotyledon rape than against the monocotyledon barnyard grass, showing appreciable selectivity.
(§2) The herbicidal activity was examined for the growth inhibition effect of the dicotyledon rape Brassica napus and the monocotyledon barnyard grass Echinochloa crusgalli, using the standard Petri dish test and the pre-emergence treatment procedure. […] Nine mL of the solution was added in a Petri dish of 9 cm diameter and two pieces of filter paper were placed on the dish bottom. Twenty seeds each of rape and barnyard grass were placed on the filter paper. The covered Petri dish was transferred into an artificial climate incubator (MGC-400H, Shantou Keyi Co., Ltd., China), where the conditions were controlled at temperature 23 ± 1 °C, humidity 60 ± 5%, light intensity 10 Klux, and photoperiod 12 h/day. The incubation was continued for 5 days, then the lengths of 10 roots and 10 stems for each type of plant were measured and the mean values were calculated. The percent inhibitory ratios were calculated relative to control plants exposing to distilled water instead of the compound solution.

rape Brassica napus [2] = assay: Petri dish culture, growth inhibition of root and stalk of rape; format: in vivo; settings: 5 days; for inhibition at 1 µg/mL / inhibition at 10 µg/mL: Brassica napus, 120 h
Method: as §1, §2

rape Brassica napus [3] = assay: Concentration-dependent root elongation inhibition of rape (IC50); format: in vivo
Method: Several representative compounds selected from the 2-phenoxy-4H-3,1-benzoxazin-4-one and 2-phenoxy-3H-quinazolin-4-one groups were tested their concentration dependant activities and the half maximal inhibitory concentrations (IC50 values) are shown in Table 3. Obviously, the 2-phenoxy-4H-3,1-benzoxazin-4-ones 3m and 3o have IC50 values near to that of the commercial herbicidal 2,4-D. More importantly, these molecules consist of 2-phenoxymethyl group with halo substituents both at the 2- and 4- positions of the benzene ring, a similar pattern to the commercial hormone herbicides 2,4-D, clomeprop, and 2,4-DB, as well as the ACCase herbicide diclofop-methyl. […] Moreover, if no halo group exists on the benzene ring, the activity will decrease dramatically. On the other hand, the substructure 4H-3,1-benzoxazin-4-one in this work and the carboxylic group in the commercial phenoxyethanoic and phenoxypropionic acid herbicides play also a crucial role in the contribution to the activities of the compounds, meaning they are active substructures.
The herbicidal activity was examined for the growth inhibition effect of the dicotyledon rape Brassica napus and the monocotyledon barnyard grass Echinochloa crusgalli, using the standard Petri dish test and the pre-emergence treatment procedure. Briefly, the compounds to be tested were dissolved in DMF and emulsified with Tween 80, and the solutions were diluted with water to the concentrations of […], respectively. Nine mL of the solution was added in a Petri dish of 9 cm diameter and two pieces of filter paper were placed on the dish bottom. Twenty seeds each of rape and barnyard grass were placed on the filter paper. The covered Petri dish was transferred into an artificial climate incubator (MGC-400H, Shantou Keyi Co., Ltd., China), where the conditions were controlled at temperature 23 ± 1 °C, humidity 60 ± 5%, light intensity 10 Klux, and photoperiod 12 h/day. The incubation was continued for 5 days, then the lengths of 10 roots and 10 stems for each type of plant were measured and the mean values were calculated. The percent inhibitory ratios were calculated relative to control plants exposing to distilled water instead of the compound solution.

[4] = 1 mg/L, root growth, read-out: Relative inhibition, root
[5] = 1 mg/L, stalk growth, read-out: Relative inhibition, stalk
[6] = 10 mg/L, root growth, read-out: Relative inhibition, root
[7] = 10 mg/L, stalk growth, read-out: Relative inhibition, stalk
[8] = Brassica napus, rape root elongation, Table 3, read-out: IC50 for the root elongation inhibition of rape

Row | Molecule | inhibition at 1 µg/mL [1, 4] [%] | inhibition at 1 µg/mL [1, 5] [%] | inhibition at 10 µg/mL [1, 6] [%] | inhibition at 10 µg/mL [1, 7] [%] | inhibition at 1 µg/mL (rape Brassica napus [2]; [4]) [%] | inhibition at 1 µg/mL (rape Brassica napus [2]; [5]) [%] | inhibition at 10 µg/mL (rape Brassica napus [2]; [6]) [%] | inhibition at 10 µg/mL (rape Brassica napus [2]; [7]) [%] | pIC50 (rape Brassica napus [3]; [8]) | melting point [°C] | also measured
1 | Cn1c(COc2ccc(Cl)cc2)nc2cccc(Cl)c2c1=O [4k, 5-Chloro-2-((4-chlorophenoxy)methyl)-3-methyl-3H-quinazolin-4-one] | 32.2 | 7.5 | 50.9 | 1.5 | 48.8 | 21.6 | 81.9 | 52.9 | 3.70 | 184.9 to 185.7 | –
2 | COc1cc2nc(COc3ccc(Cl)cc3Cl)n(N)c(=O)c2cc1OC [4j, 3-Amino-2-((2,4-dichlorophenoxy)methyl)-6,7-dimethoxy-3H-quinazolin-4-one] | 7.7 | 8.3 | 60 | 5 | 58.4 | 40.2 | 84.9 | 67.2 | 3.78 | 272.3 to 273.1 | –
3 | CCOc1ccc(Cl)cc1Cl [2,4-dichlorophenyl ethyl ether, reference compound] | – | – | – | – | – | – | – | – | – | – | herbicidal activity (control experiment) (rape Brassica napus [3]; compound without the 4H-3,1-benzoxazin-4-one substructure, plant not stated): loses nearly all of its herbicidal activity
4 | O=c1oc(COc2ccc(Cl)cc2Cl)nc2ccc(Cl)cc12 [3o, 6-Chloro-2-((2,4-dichlorophenoxy)methyl)-4H-3,1-benzoxazin-4-one] | 73.6 | -29.1 | 89.4 | 14.5 | 93.7 | 66.2 | 100 | 91.4 | 4.97 | 157.9 to 160.1 | pIC50 (rape Brassica napus [3]; Brassica napus, rape root growth, read-out: IC50, inhibitory efficacy against the rape root growth): 7.98
5 | COc1cc2nc(COc3ccc(Cl)cc3Cl)oc(=O)c2cc1OC [3q, 2-((2,4-Dichlorophenoxy)methyl)-6,7-dimethoxy-4H-3,1-benzoxazin-4-one] | 35.5 | -7.4 | 51.9 | -52.8 | 58.3 | 14.8 | 100 | 85.2 | 3.85 | 161.9 to 163.2 | –
6 | O=c1oc(COc2ccc(Cl)cc2)nc2ccc(Cl)cc12 [3i, 6-Chloro-2-((4-chlorophenoxy)methyl)-4H-3,1-benzoxazin-4-one] | 55.3 | -7.3 | 87.8 | 13.2 | 91.4 | 40.2 | 100 | 82.1 | 4.65 | 153.2 to 154.6 | –
7 | Nn1c(COc2ccc(Cl)cc2Cl)nc2ccccc2c1=O [4f, 3-Amino-2-((2,4-dichlorophenoxy)methyl)-3H-quinazolin-4-one] | 35 | -5 | 22.2 | -6.6 | 65.6 | 48.1 | 73.4 | 48.1 | 3.65 | 214.6 to 215.7 | –
8 | O=c1oc(COc2ccc(Cl)cc2Cl)nc2ccccc12 [3m, 2-((2,4-Dichlorophenoxy)methyl)-4H-3,1-benzoxazin-4-one] | 38.3 | -22.7 | 100 | -0.6 | 96.3 | 77.7 | 100 | 93.8 | 4.99 | 118.5 to 119.3 | –
9 | O=c1oc(COc2ccc(Cl)cc2Cl)nc2cc(Cl)ccc12 [3p, 7-Chloro-2-((2,4-dichlorophenoxy)methyl)-4H-3,1-benzoxazin-4-one] | 64.3 | 5.9 | 100 | -14.4 | 98 | 82.3 | 100 | 91.4 | 4.96 | 139.6 to 142.5 | –
10 | O=c1oc(COc2ccc(Cl)cc2)nc2ccccc12 [3g, 2-((4-Chlorophenoxy)methyl)-4H-3,1-benzoxazin-4-one] | 53.7 | -25.6 | 79.5 | -1.8 | 98 | 56.8 | 100 | 68 | 4.52 | 147.5 to 149.2 | –
11 | O=c1oc(COc2ccc(Cl)cc2)nc2cccc(Cl)c12 [3h, 5-Chloro-2-((4-chlorophenoxy)methyl)-4H-3,1-benzoxazin-4-one] | 59.8 | 14.7 | 88.7 | 41.9 | 96.3 | 62 | 100 | 91.7 | 3.86 | 144.3 to 145.7 | –
12 | 3-Amino-7-chloro-2-((2,4-dichlorophenoxy)methyl)-3H-quinazolin-4-one [4i] | – | – | – | – | – | – | – | – | – | – | Relative inhibition, root ([1]; 1 mg/L, root growth): 24.3%; Relative inhibition, stalk ([1]; 1 mg/L, stalk growth): −7.2%; Relative inhibition, root ([1]; 10 mg/L, root growth): 68.5%; Relative inhibition, stalk ([1]; 10 mg/L, stalk growth): 38.1%; Relative inhibition, root (rape Brassica napus [2]; 1 mg/L, root growth): 93.6%; Relative inhibition, stalk (rape Brassica napus [2]; 1 mg/L, stalk growth): 92.3%; Relative inhibition, root (rape Brassica napus [2]; 10 mg/L, root growth): 98.2%; Relative inhibition, stalk (rape Brassica napus [2]; 10 mg/L, stalk growth): 95.7%; pIC50 (rape Brassica napus [3]; rape root elongation, Table 3, read-out: IC50 for the root elongation inhibition of rape): 4.56

— article PMC6268642, “Facile Synthesis and Herbicidal Evaluation of 4H-3,1-Benzoxazin-4-ones and 3H-Quinazolin-4-ones with 2-Phenoxymethyl Substituents” (Molecules, 2012)
